Test results as given in patent US20230242526A1 (Zentaur Therapeutics International Limited, priority 2020, published 2023).
Each block holds one compound with its values, some of them ahead of it.

How the values were obtained:
[1] = system: human breast squamous HCC1806 cell line; assay: CyQUANT Direct cell proliferation assay, HCC1806; type: cell-based; conditions: HCC1806, 168 h, 7 days
Text: The human ovarian carcinoma OVCAR3 cell line (ATCC HTB-161™) or human breast squamous HCC1806 cell line (ATCC CRL 2335) were obtained from American Type Culture Collection (ATCC), and maintained in culture media according to the supplier's specification.
The CyQUANT® Direct Cell Proliferation Assay Kit (Invitrogen™, catalog No. G35012) was utilized to test the inhibitory activities of the CDK2 inhibitors described in this disclosure against OVCAR3 or HCC1806 tumor cells.
CyQUANT® Direct Cell Proliferation Assay: The spent medium from the purchased tumor cell culture plate was removed and the tumor cells were washed with PBS buffer twice. Trypsin (VWR catalog No. 0458-25G) was added to digest the tumor cells until tumor cells appeared round shaped and to dissociate adherent cells from the plate wall in which they are being cultured. Then RPMI-1640 media (HCC1806, Gibco™ catalog No, A10491-01) with 10% fetal bovine serum (FBS) (Hyclone™ catalog No. SV30160.03), or RPMI-1640 media (OVCAR-3, Gibco™ catalog No. 10370-021) with 20% FBS and 0.01 mg/mL insulin was added to stop the trypsin digestion reaction. The tumor cells were lightly agitated with a liquid transfer pipette to cause tumor cells suspended in the culture media. The cells were counted. The complete medium was used to prepare tumor cell suspension.
OVCAR3 or HCC1806 cells were seeded at 40 μL/well in 384-well plates in growth media containing FBS and cultured 24 hours in the incubator at 37° C., 5% CO2. […] Compound solutions were added by Agilent Bravo liquid handler. […] The control wells contained the growth medium having 0.1% DMSO. Cells were incubated at 37° C., 5% CO2 for 7 days.
CYQUANT Direct Cell Proliferation Assay (Molecular Probes, Eugene, Oreg.) was then performed following manufacturer's instructions to prepare the detection reagents. 50 μL of detection reagent was aliquot and added to each well and the cells were incubated at 37° C. for 1 hr.
The cell culture plates were placed on TECAN M1000 microplate reader to detect the fluorescence intensity at 508 nm excitation and 527 nm emission wavelengths. Graphpad Prism 6.0 software was used for data processing, preparing cell growth curve, calculating percentage inhibition on cell growth. IC50 values were calculated by concentration-response curve fitting utilizing a four-parameter analytical method using GraphPad Prism software.

in vitro = conditions: human, microsomes, pH 7.4, t1/2 human
Protocol: Human liver microsomes (cat. No. 452161), mouse liver microsomes (cat. No. 452701), were purchased from Corning.
Samples were analyzed using LC-MS/MS using a SCIEX API 4000 mass spectrometer coupled with Agilent HPLC analytical system. After separation on a ZORBAX XDB-C18 column (5 μm, 50×2.1 mm, column No. 50-282) using an acetonitrile-water gradient system, peaks were analyzed by mass spectroscopy (MS) using ESI ionization in Q1 and Q3 scan mode.
The LC and MS are all controlled by Analyst software.
The liver microsomes were incubated with 1.0 μM of the testing compound at 37° C. The incubation mixture contained 100 mM PBS buffer (pH=7.4), 3 mM MgCl2 and 1 mM NADPH. The concentration of liver microsome in the incubation mixture was 0.5 mg/mL for testing compound, and 0.2 mg/mL for MDZ and the total volume is 0.2 mL. […] Aliquots were withdrawn at time points of 0 min, 5 min and 20 min for MDZ. The reactions were terminated by transferring the aliquots to a methanol solution containing the internal standard […] for analytical quantification. The quenched samples were analyzed by LC-MS/MS. The incubations were carried out in duplicates. The metabolic stability of the testing compounds by the liver microsomes of human and mice is expressed as elimination half-life (t1/2). The results are shown as the means of duplicate determinations±SD.

HCC1806 s.c. xenografts = assay: HCC1806 s.c. breast cancer xenograft efficacy (tumor volume, relative tumor volume, tumor weight, TGI); type: in vivo, BALB/c nude mice; conditions: 30 mg/kg P.O. BID; for Tumor Growth Inhibition D3 / Tumor Growth Inhibition D7 / Tumor Growth Inhibition D10 / Tumor Growth Inhibition D14 / Tumor Growth Inhibition D17 / Tumor Growth Inhibition D21: vs control vehicle; for Tumor Growth Inhibition D3 / Tumor volume D3: day 3; for Tumor Growth Inhibition D7 / Tumor volume D7: day 7; for Tumor Growth Inhibition D10 / Tumor volume D10: day 10; for Tumor Growth Inhibition D14 / Tumor volume D14: day 14; for Tumor Growth Inhibition D17 / Tumor volume D17: day 17; for Tumor Growth Inhibition D21 / Tumor volume D21: day 21; for Tumor volume D0 / Tumor volume D3 / Tumor volume D7 / Tumor volume D10 / Tumor volume D14 / Tumor volume D17 / Tumor volume D21 / Tumor weight: group mean; for Tumor volume D0: day 0; for Tumor weight: end of the study (Day 21)
Protocol: The in vivo potency of anti-tumor activities of Comp. 4, Comp. 37, Comp. 5, Comp. 28, Comp. 163, and Comp. 164 have been evaluated on the growth of HCC1806 s.c. xenografts in BALB/c nude mice.
The testing compounds Comp. 4, Comp. 37, Comp. 5, Comp. 28, Comp. 163, and Comp. 164 were prepared according the synthetic routes set forth in the above Examples. The testing formulations for compounds Comp. 4, Comp. 37, Comp. 5, Comp. 28, Comp. 163, and Comp. 164 were prepared as liquid formulation in a liquid vehicle containing 0.1% Tween-80 (purchased form Sinopharm Chemical Reagent Co., Ltd, Lot No. 20190322), 0.5% methyl cellulose (purchased from SIGMA, Lot No. SLBR8963V) in water.
A total of 42+8 female BALB/c nude mice were ordered from Shanghai LC Laboratory Animal Co. Ltd. The animals were specific pathogen free and approximately 4-5 weeks old upon arrival at PharmaLegacy Laboratories.
HCC1806 cell cultures were maintained at 37° C. under 5% CO2 in RPMI-1640 medium supplemented with 10% FBS and were subsequently cultured within 10 passages before inoculated into the mice.
(§1) When the average tumor volume reached 80-120 mm^3, 42 tumor-bearing mice were randomized into 7 groups (6 mice per group) according to tumor volume. The grouping day was defined as Day 0. Treatment was applied immediately after grouping animals on the same day.
(§2) The body weight of the testing animals were measured twice a week after grouping. Tumor volumes by the length and width of the tumor were measured by electric calipers and the tumor volume (V) was calculated as follows: V=(length×width^2)/2. The individual relative tumor volume (RTV) was calculated as follows: RTV=Vt/V0, where Vt was the volume on each day, and V0 was the volume at the beginning of the treatment.
Tumors were collected at the end of the study (Day 21), the mice were sacrificed. Tumor was collected, weighed, photographed.
(§3) Results were expressed as mean±S.E.M. Comparisons between two groups were made by corresponding test, p<0.05 were considered to be significant.

[2] = Body weight in the HCC1806 xenograft study; type: in vivo, BALB/c nude mice; conditions: group mean, 30 mg/kg P.O. BID; for Body weight D0: day 0; for Body weight D3: day 3; for Body weight D7: day 7; for Body weight D10: day 10; for Body weight D14: day 14; for Body weight D17: day 17; for Body weight D21: day 21
Protocol: as §1, §2, §3

Structure (SMILES): [2H]C([2H])([2H])S(=O)(=O)N1CCC(Nc2ncc3ccc(=O)n([C@@H]4CCC[C@@]4(C)O)c3n2)CC1 [Comp. 55, (−)-8-((1R,2R)-2-hydroxy-2-methylcyclopentyl)-2-((1-((methyl-d3)sulfonyl)piperidin-4-yl)amino)pyrido[2,3-d]pyrimidin-7(8H)-one]
half-life at 1 μM (in vitro): 346 min

Structure (SMILES): [2H]C([2H])([2H])S(=O)(=O)N1CCC(Nc2ncc3cc(C)c(=O)n([C@@H]4CCC[C@@]4(C)O)c3n2)CC1 [Comp. 74, (−)-8-((1R,2R)-2-hydroxy-2-methylcyclopentyl)-6-methyl-2-((1-((methyl-d3)sulfonyl)piperidin-4-yl)amino)pyrido[2,3-d]pyrimidin-7(8H)-one]
IC50 [1]: 83.7 nM

Structure (SMILES): [2H]C([2H])([2H])c1cc2cnc(NC3([2H])C([2H])([2H])CN(S(C)(=O)=O)CC3([2H])[2H])nc2n([C@@H]2CCC[C@@]2(C)O)c1=O [Comp. 164, (−)-8-((1R,2R)-2-hydroxy-2-methylcyclopentyl)-6-(methyl-d3)-2-((1-(methylsulfonyl)piperidin-4-yl-3,3,4,5,5-d5)amino)pyrido[2,3-d]pyrimidin-7(8H)-one]
tumor weight at the end of the study, in words (HCC1806 s.c. xenografts): lighter tumor but no statistic significance
Tumor Growth Inhibition D3 (HCC1806 s.c. xenografts): 29.37%
Tumor Growth Inhibition D7 (HCC1806 s.c. xenografts): 15.49%
Tumor Growth Inhibition D10 (HCC1806 s.c. xenografts): 21.94%
Tumor Growth Inhibition D14 (HCC1806 s.c. xenografts): 18.56%
Tumor Growth Inhibition D17 (HCC1806 s.c. xenografts): 29.97%
Tumor Growth Inhibition D21 (HCC1806 s.c. xenografts): 31.27%
Tumor volume D0 (HCC1806 s.c. xenografts): 112.74 mm^3
Tumor volume D3 (HCC1806 s.c. xenografts): 243.14 mm^3
Tumor volume D7 (HCC1806 s.c. xenografts): 545.66 mm^3
Tumor volume D10 (HCC1806 s.c. xenografts): 817.53 mm^3
Tumor volume D14 (HCC1806 s.c. xenografts): 1209.55 mm^3
Tumor volume D17 (HCC1806 s.c. xenografts): 1380.25 mm^3
Tumor volume D21 (HCC1806 s.c. xenografts): 1610.30 mm^3
Tumor weight (HCC1806 s.c. xenografts): 2.51 g
Body weight D0 [2]: 18.47 g
Body weight D3 [2]: 18.47 g
Body weight D7 [2]: 18.70 g
Body weight D10 [2]: 18.37 g
Body weight D14 [2]: 17.86 g
Body weight D17 [2]: 18.20 g
Body weight D21 [2]: 17.29 g

Structure (SMILES): [2H]C1([2H])CN(S(C)(=O)=O)CC([2H])([2H])C1Nc1ncc2cc(C)c(=O)n([C@@H]3CCC[C@@]3(C)O)c2n1 [Comp. 67, (−)-8-((1R,2R)-2-hydroxy-2-methylcyclopentyl)-6-methyl-2-((1-(methylsulfonyl)piperidin-4-yl-3,3,5,5-d4)amino)pyrido[2,3-d]pyrimidin-7(8H)-one]
IC50 [1]: 65.9 nM

Structure (SMILES): [2H]C([2H])([2H])c1cc2cnc(NC3([2H])C([2H])([2H])CN(S(=O)(=O)C([2H])([2H])[2H])CC3([2H])[2H])nc2n([C@@H]2CCC[C@@]2(C)O)c1=O [Comp. 163, (−)-8-((1R,2R)-2-hydroxy-2-methylcyclopentyl)-6-(methyl-d3)-2-((1-((methyl-d3)sulfonyl)piperidin-4-yl-3,3,4,5,5-d5)amino)pyrido[2,3-d]pyrimidin-7(8H)-one]
tumor volume compared with G1 vehicle on each day (HCC1806 s.c. xenografts): significant smaller tumor volume on day 7, 17 and 21
tumor weight at the end of the study, in words (HCC1806 s.c. xenografts): lighter tumor but no statistic significance
Tumor Growth Inhibition D3 (HCC1806 s.c. xenografts): 38.81%
Tumor Growth Inhibition D7 (HCC1806 s.c. xenografts): 34.97%
Tumor Growth Inhibition D10 (HCC1806 s.c. xenografts): 34.46%
Tumor Growth Inhibition D14 (HCC1806 s.c. xenografts): 30.36%
Tumor Growth Inhibition D17 (HCC1806 s.c. xenografts): 36.67%
Tumor Growth Inhibition D21 (HCC1806 s.c. xenografts): 40.94%
Tumor volume D0 (HCC1806 s.c. xenografts): 110.66 mm^3
Tumor volume D3 (HCC1806 s.c. xenografts): 223.62 mm^3
Tumor volume D7 (HCC1806 s.c. xenografts): 443.83 mm^3
Tumor volume D10 (HCC1806 s.c. xenografts): 702.37 mm^3
Tumor volume D14 (HCC1806 s.c. xenografts): 1048.55 mm^3
Tumor volume D17 (HCC1806 s.c. xenografts): 1257.00 mm^3
Tumor volume D21 (HCC1806 s.c. xenografts): 1397.61 mm^3
Tumor weight (HCC1806 s.c. xenografts): 2.20 g
Body weight D0 [2]: 17.54 g
Body weight D3 [2]: 17.61 g
Body weight D7 [2]: 17.72 g
Body weight D10 [2]: 17.67 g
Body weight D14 [2]: 18.32 g
Body weight D17 [2]: 18.66 g
Body weight D21 [2]: 17.95 g

More lines, now with the values ahead:

IC50 [1]: 65.5 nM
Structure (SMILES): [2H]C1(Nc2ncc3cc(C(F)F)c(=O)n([C@@H]4CCC[C@@]4(C)O)c3n2)CCN(S(C)(=O)=O)CC1 [Comp. 99, (−)-6-(difluoromethyl)-8-((1R,2R)-2-hydroxy-2-methylcyclopentyl)-2-((1-(methylsulfonyl)piperidin-4-yl-4-d)amino)pyrido[2,3-d]pyrimidin-7(8H)-one]

IC50 [1]: 67.7 nM
Structure (SMILES): [2H]C(F)(F)c1cc2cnc(NC3CCN(S(=O)(=O)C([2H])([2H])[2H])CC3)nc2n([C@@H]2CCC[C@@]2(C)O)c1=O [Comp. 92, (−)-6-(difluoromethyl-d)-8-((1R,2R)-2-hydroxy-2-methylcyclopentyl)-2-((1-((methyl-d3)sulfonyl)piperidin-4-yl)amino)pyrido[2,3-d]pyrimidin-7(8H)-one]

IC50 [1]: 59 nM
Structure (SMILES): C[C@@]1(O)CCC[C@H]1n1c(=O)c(C(F)F)cc2cnc(NC3CCN(S(C)(=O)=O)CC3)nc21 (racemic) [Comp. 2, (±)-8-(2-hydroxy-2-methylcyclopentyl)-6-difluoromethyl-2-((1-(methylsulfonyl)piperidin-4-yl)amino)pyrido[2,3-d]pyrimidin-7(8H)-one, reference compound]

IC50 [1]: 84.5 nM
Structure (SMILES): [2H]C([2H])([2H])S(=O)(=O)N1CCC(Nc2ncc3cc(C(F)F)c(=O)n([C@@H]4CCC[C@@]4(C)O)c3n2)CC1 [Comp. 85, (−)-6-(difluoromethyl)-8-((1R,2R)-2-hydroxy-2-methylcyclopentyl)-2-((1-((methyl-d3)sulfonyl)piperidin-4-yl)amino)pyrido[2,3-d]pyrimidin-7(8H)-one]
